Measurements from US4939122A, “Lipophile derivatives of muramylpeptides having properties of activating macrophages and compositions containing them” (priority 1984, dated 1990).
“And” between values parts separate entries of the source, which are not always exact repeats. Identical values can stand only once. Like-named read-outs stand apart in the source and are kept apart here.

How the values were obtained:
Klebsiella pneumoniae = experiment: Anti-infectious activity in Swiss mice infected i.v. with Klebsiella pneumoniae; format: in vivo; conditions: for protective activity against lethal Klebsiella pneumoniae infection (in words): summary of observations
Description: In the Tables VII to XI are indicated the conditions in which the substances were administered and, according to the considered cases, the number of mice surviving 10 or 15 days later and the corresponding percentages of protection with respect to controls.

[1] = Pyrogenicity in rabbits (European Pharmacopoea); format: in vivo, rabbit; conditions: 1 mg/kg; groups of three rabits, individual animals
Description: Certain of the compounds according to the invention show at relatively high doses, a certain pyrogenicity, whose impact is however reduced, taking into account the particularly higher therapeutic index from which they appear to benefit. This being the case, the muramylpeptides in which the group of modification by the two lipophile chains is fixed to the 6 position of the saccharide group, and of which the peptide chain is terminated by a glutamy-alpha-ester-gamma-amide group, are particularly advantageous by reason of their more reduced pyrogenicity. Testimony thereof is borne by comparative pyrogenicity measurements carried out on groups of three rabits with the two compounds more particularly studied, according to the procedure of the European Pharmacopoea, Vol. 2, 1971, pages 58-60. In fact, the following results are obtained, expressed by temperature observations observed in experimental animals to which had previously been administered 1 mg/kg of the compounds studied: for the MDP-GDP : 1°; 0.9° and 1° C.; for the 6 -0-GDP-MDPG-OnBu : 0.2°; 0.3° and 0.5° C.

bovine serumalbumin = experiment: Adjuvant activity in the Swiss female mouse, passive hemagglutination titer; format: in vivo; conditions: for Primary response, passive hemagglutination titer: 100 micrograms with 500 micrograms of bovine serumalbumin at day 0, day 21, serums titrated in pools; for Secondary response, passive hemagglutination titer: booster of antigen alone at day 30, day 36, titrated separately
Description: At day 0, 100 micrograms of C474 were injected with 500 micrograms of bovine serumalbumin. At day 30, the animals received a booster of 100 micrograms of antigen alone. The following results were obtained:
The titers are expressed in Log 2 of the passive hemagglutination titer. At day 21, the serums were titrated in pools; at day 36, they were titrated separately.

[2] = Retention of the muramylpeptide in liposomes incubated in MEM-FCS medium at 37° C.; format: physicochemical
Description: Liposomes produced under the same conditions, but with muramylpeptides labeled with tritium have enabled the following observations. […] The incorporation of the MDP-GDP and the stability of the latter, has also been verified in reaction tests with anti-MDP monoclonal antibodies. After incubation of these liposomes in the same medium at 37° C. for 72 hours, there is observed a constant agglutination of the liposomes with the antibody (95% of the liposome being agglutinated), this observation bearing witness to the practical absence of any loss of MDP-GDP. […] The leakage, if it was produced, would have been manifested by a decrease in the intensity of agglutination with time.

Candida albicans = experiment: Protection of mice infected by the venous route with Candida albicans; format: in vivo
[3] = test system: influenza virus suspension APR/8; format: in vivo; conditions: preventive, 0.1 mg per mouse
[4] = Table IX, 5 × 10^4 K. pneumoniae, Gentamicin 10 μg subcutaneously 2 hours after infection, MDP or MDP-GDP 30 μg intravenously 24 hours before
[5] = Table X, 100 μg i.v. at day -1, 10^4 K. pneumoniae
[6] = Table VII, aqueous suspension, 100 μg i.v. at day -1, 10^4 K. pneumoniae
[7] = Table XI, 2 × 10^6 Candida albicans, muramylpeptide 100 μg/day/4 days i.v. (-4 to -1), amphotericin B 3 μg subcutaneously on the day of infection
[8] = Table XI, 2 × 10^6 Candida albicans, muramylpeptide 100 μg/day/4 days i.v., amphotericin B 3 μg subcutaneously

Molecule: Gentamicin [reference compound]
- Protection (%) (Klebsiella pneumoniae; [4]): 21%
- Survival (15 d) (Klebsiella pneumoniae; [4]): 5/24

Molecule: 6-O-(beta, gamma-dipalmitoyl-L-glyceryl)-N-acetyl-muramyl-L-alanyl-D-glutamine-n-buty l-ester [6-0-GDP-MDPG-OnBu]
- temperature observations (pyrogenicity) [1]: 0.2 °C and 0.3 °C and 0.5 °C
- Primary response, passive hemagglutination titer (bovine serumalbumin): 2.64 Log 2
- Secondary response, passive hemagglutination titer (bovine serumalbumin): 8.6 Log 2
- protective activity against lethal Klebsiella pneumoniae infection (in words) (Klebsiella pneumoniae): protective activity comparable
- retention of the muramylpeptide in the liposomes (in words) [2]: Quite similar observations

Molecule: CCCCCCCCCCCCCCCC(=O)OCC(COC(=O)[C@H](C)NC(=O)CC[C@@H](NC(=O)[C@H](C)NC(=O)[C@@H](C)O[C@H]1[C@H](O)[C@@H](CO)OC(O)[C@@H]1NC(C)=O)C(N)=O)OC(=O)CCCCCCCCCCCCCCC (stereo partly drawn) [MDP-L-Ala-GDP, alpha (N-acetyl-muramyl-L-alanyl-D-isoglutaminyl-L-alanine), beta, gamma-dipalmitoyl-sn-glycerol]
- Protection (%) (Klebsiella pneumoniae; [5]): 63%
- Survival (15 d) (Klebsiella pneumoniae; [5]): 12/16
- retention of the muramylpeptide in the liposomes (in words) [2]: Quite similar observations

Molecule: alpha (N-acetyl-muramyl-D-alanyl-D-isoglutamine), beta, gamma-dipalmitoyl-sn-glycerol [MDP(D,D)-GDP]
- Protection (%) (Klebsiella pneumoniae; [6]): 83.3%
- Survival (15 d) (Klebsiella pneumoniae; [6]): 20/24
- protective activity against lethal Klebsiella pneumoniae infection (in words) (Klebsiella pneumoniae): protective activity comparable
- Survival (10 d) (Candida albicans; [7]): 0/16
- retention of the muramylpeptide in the liposomes (in words) [2]: Quite similar observations

Molecule: CCCCCCCCCCCCCCCC(=O)OCC(COC(=O)[C@H](C)NC(=O)CC[C@@H](NC(=O)[C@@H](C)NC(=O)[C@@H](C)O[C@H]1[C@H](O)[C@@H](CO)OC(O)[C@@H]1NC(C)=O)C(N)=O)OC(=O)CCCCCCCCCCCCCCC (stereo partly drawn) [MDP(D,D)-L-Ala-GDP, alpha (N-acetyl-muramyl-D-alanyl-D-isoglutaminyl-L-alanine) beta, gamma-dipalmitoyl-sn-glycerol]
- Protection (%) (Klebsiella pneumoniae; [5]): 25%
- Survival (15 d) (Klebsiella pneumoniae; [5]): 6/16
- protective activity against lethal Klebsiella pneumoniae infection (in words) (Klebsiella pneumoniae): although active, is less so than MDP-L-Ala-GDP
- retention of the muramylpeptide in the liposomes (in words) [2]: Quite similar observations

Molecule: 6-O-(beta, gamma-dipalmitoyl-L-glycerol)-capryl -N-acetyl-muramyl-L-alanyl-D-glutamine-n-butyl ester [6-0-GDP-aminocaproyl-MDPG-OnBu]
- Protection (%) (Klebsiella pneumoniae; [5]): 56%
- Survival (15 d) (Klebsiella pneumoniae; [5]): 9/16
- retention of the muramylpeptide in the liposomes (in words) [2]: Quite similar observations

Molecule: C[C@@H]1[C@H](O)[C@@H](C)/C=C/C=C/C=C/C=C/C=C/C=C/C=C/[C@H](O[C@@H]2O[C@H](C)[C@@H](O)[C@H](N)[C@@H]2O)C[C@@H]2O[C@](O)(C[C@@H](O)C[C@@H](O)[C@H](O)CC[C@@H](O)C[C@@H](O)CC(=O)O[C@H]1C)C[C@H](O)[C@H]2C(=O)O [Amphotericin B, reference compound]
- Survival (10 d) (Candida albicans; [7]): 2/16
- Protection (Candida albicans; [8]): 13

Molecule: CCCCCCCCCCCCCCCC(=O)OC[C@@H](COC(=O)CC[C@@H](NC(=O)[C@H](C)NC(=O)[C@@H](C)O[C@H]1[C@H](O)[C@@H](CO)OC(O)[C@@H]1NC(C)=O)C(N)=O)OC(=O)CCCCCCCCCCCCCCC (stereo partly drawn) [MDP-GDP, alpha (N-acetyl-muramyl-L-alanyl-D-isoglutamine), beta, gamma-dipalmitoyl-sn-glycerol]
- Primary response, passive hemagglutination titer (bovine serumalbumin): 3.64 Log 2
- Secondary response, passive hemagglutination titer (bovine serumalbumin): 10.27 Log 2
- Protection (%) (Klebsiella pneumoniae; [4]): 16%
- Survival (15 d) (Klebsiella pneumoniae; [4]): 4/24
- Protection (%) (Klebsiella pneumoniae; [6]): 65%
- Survival (15 d) (Klebsiella pneumoniae; [6]): 32/48
- protective activity when injected in liposomes (in words) (Klebsiella pneumoniae; in liposomes): the most active
- protective activity against lethal Klebsiella pneumoniae infection (in words) (Klebsiella pneumoniae): protective activity comparable
- Survival (10 d) (Candida albicans; [7]): 3/16
- Protection (Candida albicans; [8]): 19
- Protection (Candida albicans; Table XII, aqueous suspension IOO μg × 4): 75%
- Survival (10 d) (Candida albicans; Table XII, aqueous suspension IOO μg × 4, days -4, -3, -2, and -1, 10^6 Candida albicans): 6/8
- activity against Candida (in words) (Candida albicans; in vivo): active
- survival ([3]; orally): 56%
- survival ([3]; subcutaneously): 44%

Molecule: CCCCOC(=O)[C@@H](CCC(N)=O)NC(=O)[C@H](C)NC(=O)[C@@H](C)O[C@H]1[C@H](O)[C@@H](CO)OC(O)[C@@H]1NC(C)=O (some centres unmarked) [MDPG-OnBu, reference compound]
- Protection (%) (Klebsiella pneumoniae; [6]): 62.5%
- Survival (15 d) (Klebsiella pneumoniae; [6]): 20/32
